INH data for 28 compounds are collected here from ChEMBL document CHEMBL2163248, “Classification of inhibitors of hepatic organic anion transporting polypeptides (OATPs): influence of protein expression on drug-drug interactions” (J Med Chem, 2012).

Data set [1] concerns the target T1, Solute carrier organic anion transporter family member 1B1 (Homo sapiens, UniProt Q9Y6L6).
T1 sequence (Q9Y6L6 whole entry): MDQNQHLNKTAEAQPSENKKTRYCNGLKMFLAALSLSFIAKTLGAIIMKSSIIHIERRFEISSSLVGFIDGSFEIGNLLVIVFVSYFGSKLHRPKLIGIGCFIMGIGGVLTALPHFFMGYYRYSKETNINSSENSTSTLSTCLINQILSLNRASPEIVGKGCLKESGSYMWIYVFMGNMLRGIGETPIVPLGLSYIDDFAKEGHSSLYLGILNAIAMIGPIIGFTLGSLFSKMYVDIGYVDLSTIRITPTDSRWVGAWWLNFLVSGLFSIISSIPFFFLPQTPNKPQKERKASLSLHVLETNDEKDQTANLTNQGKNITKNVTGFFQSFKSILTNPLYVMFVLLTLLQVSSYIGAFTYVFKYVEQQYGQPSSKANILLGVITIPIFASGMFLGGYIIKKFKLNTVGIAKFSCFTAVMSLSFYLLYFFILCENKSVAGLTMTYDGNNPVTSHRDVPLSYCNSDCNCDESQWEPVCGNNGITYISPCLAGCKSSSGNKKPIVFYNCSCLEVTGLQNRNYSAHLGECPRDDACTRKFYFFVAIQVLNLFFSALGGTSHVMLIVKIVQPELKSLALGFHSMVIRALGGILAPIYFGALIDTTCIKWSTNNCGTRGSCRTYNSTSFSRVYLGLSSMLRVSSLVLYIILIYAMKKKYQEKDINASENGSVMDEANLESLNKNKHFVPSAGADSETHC
In words: Inhibition of human liver OATP1B1 expressed in HEK293 Flp-In cells assessed as reduction in E17-betaG uptake at 20 uM by scintillation counting. As to conditions: hek293, 20 µM.

Data set [2] deals with T2, Solute carrier organic anion transporter family member 2B1 (Homo sapiens, UniProt O94956).
T2 sequence (O94956 whole entry): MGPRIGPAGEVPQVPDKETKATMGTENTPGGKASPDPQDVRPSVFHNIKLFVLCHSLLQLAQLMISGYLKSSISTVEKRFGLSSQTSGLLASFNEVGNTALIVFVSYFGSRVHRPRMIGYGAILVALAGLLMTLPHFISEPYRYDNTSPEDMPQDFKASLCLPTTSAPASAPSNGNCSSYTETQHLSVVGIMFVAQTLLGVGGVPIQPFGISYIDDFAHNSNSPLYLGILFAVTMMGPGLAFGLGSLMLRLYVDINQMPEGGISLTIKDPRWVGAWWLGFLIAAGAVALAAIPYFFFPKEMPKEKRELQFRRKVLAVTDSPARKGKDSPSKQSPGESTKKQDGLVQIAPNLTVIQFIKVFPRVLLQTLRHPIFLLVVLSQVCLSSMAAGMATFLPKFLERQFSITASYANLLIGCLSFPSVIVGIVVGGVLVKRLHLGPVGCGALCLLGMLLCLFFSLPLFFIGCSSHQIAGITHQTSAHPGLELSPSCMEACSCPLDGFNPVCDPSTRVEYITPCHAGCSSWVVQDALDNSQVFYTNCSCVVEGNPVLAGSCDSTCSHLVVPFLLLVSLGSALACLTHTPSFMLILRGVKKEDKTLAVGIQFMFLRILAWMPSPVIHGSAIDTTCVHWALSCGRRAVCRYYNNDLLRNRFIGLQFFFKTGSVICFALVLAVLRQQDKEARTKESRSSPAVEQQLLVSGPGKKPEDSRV
In words: Inhibition of human liver OATP2B1 expressed in HEK293 Flp-In cells assessed as reduction in [3H]E3S uptake at 20 uM incubated for 5 mins by scintillation counting. The conditions noted are these: hek293, 5 min.

Data set [3] deals with T3, Solute carrier organic anion transporter family member 1B3 (Homo sapiens, UniProt Q9NPD5).
T3 sequence (Q9NPD5 whole entry): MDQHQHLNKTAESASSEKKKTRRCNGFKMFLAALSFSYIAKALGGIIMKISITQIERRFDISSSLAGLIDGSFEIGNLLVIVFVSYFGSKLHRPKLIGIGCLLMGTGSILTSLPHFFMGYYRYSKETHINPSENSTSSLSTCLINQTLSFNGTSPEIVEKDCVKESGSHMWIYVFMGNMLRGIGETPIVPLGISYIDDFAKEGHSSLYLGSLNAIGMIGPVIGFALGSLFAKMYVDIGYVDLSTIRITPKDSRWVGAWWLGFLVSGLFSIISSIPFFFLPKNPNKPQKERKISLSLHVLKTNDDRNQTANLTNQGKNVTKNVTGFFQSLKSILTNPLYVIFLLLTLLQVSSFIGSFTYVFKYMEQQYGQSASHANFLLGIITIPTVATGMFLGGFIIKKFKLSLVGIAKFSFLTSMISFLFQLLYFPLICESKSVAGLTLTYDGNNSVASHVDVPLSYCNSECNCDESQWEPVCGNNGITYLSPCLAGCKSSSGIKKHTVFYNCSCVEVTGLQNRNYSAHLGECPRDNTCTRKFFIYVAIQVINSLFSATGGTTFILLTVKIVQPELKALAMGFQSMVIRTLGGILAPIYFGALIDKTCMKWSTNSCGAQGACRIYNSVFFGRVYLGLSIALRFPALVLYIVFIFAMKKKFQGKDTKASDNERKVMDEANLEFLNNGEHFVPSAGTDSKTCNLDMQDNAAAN
In words: Inhibition of human liver OATP1B3 expressed in HEK293 Flp-In cells assessed as reduction in [3H]E17-betaG uptake at 20 uM incubated for 5 mins by scintillation counting. The conditions noted are these: hek293, 5 min.

Where a SMILES comes first, the peptide text is derived from it.

`C[C@@H]1C[C@H]2[C@@H]3CCC4=CC(=O)C=C[C@]4(C)[C@@]3(F)[C@@H](O)C[C@]2(C)[C@@]1(O)C(=O)CO` [DEXAMETHASONE]: the INH is reported as 10.7% in data set [1], -12.5% in data set [2] and 34.2% in data set [3].

With `COc1ccc2c(c1)[C@]13CCCC[C@@H]1[C@H](C2)N(C)CC3` [DEXTROMETHORPHAN], the INH in data set [1] is 36.3%; in data set [2], 15.9%; in data set [3] it was -21.9%.

Turning to `CC/C(=C(/CC)c1ccc(O)cc1)c1ccc(O)cc1` [DIETHYLSTILBESTROL], the INH worked out at 62.1% in data set [1], 68.1% in data set [2] and 31.1% in data set [3].

`COc1ccc([C@@H]2Sc3ccccc3N(CCN(C)C)C(=O)[C@@H]2OC(C)=O)cc1` [DILTIAZEM]: the INH in data set [1] was 3.2%; in data set [2] it was -9.1%; in data set [3] it was 4.1%.

Consider `CC(C)N(CCC(C(N)=O)(c1ccccc1)c1ccccn1)C(C)C` (centres undefined) [DISOPYRAMIDE], for which the INH in data set [1] is 47.5%; in data set [2], 18.5%; in data set [3] it was 8.6%.

As for `COc1cc2nc(N3CCN(C(=O)C4COc5ccccc5O4)CC3)nc(N)c2cc1OC` (centres undefined) [DOXAZOSIN], the values for the INH in data set [1], in data set [2] and in data set [3] were 28.8%, 45.8% and -17.3%, respectively.

On to `O=C1Nc2ccc(Cl)cc2[C@@](C#CC2CC2)(C(F)(F)F)O1` [EFAVIRENZ], for which the INH is on record as 40.9% in data set [1], 43.2% in data set [2] and 18.2% in data set [3].

Regarding `CC[C@H]1OC(=O)[C@H](C)[C@@H](O[C@H]2C[C@@](C)(OC)[C@@H](O)[C@H](C)O2)[C@H](C)[C@@H](O[C@@H]2O[C@H](C)C[C@H](N(C)C)[C@H]2O)[C@](C)(O)C[C@@H](C)C(=O)[C@H](C)[C@@H](O)[C@]1(C)O` [ERYTHROMYCIN], the INH in data set [1] is given as 58.8%; in data set [2], -19%; in data set [3], 45.8%.

In the case of `C[C@]12CC[C@@H]3c4ccc(O)cc4CC[C@H]3[C@@H]1CC[C@@H]2O` [ESTRADIOL], the INH in data set [1] is 102.8%; in data set [2], 47.4%; in data set [3] it was 39.3%.

On to `C[C@]12CC[C@@H]3c4ccc(OS(=O)(=O)O)cc4CC[C@H]3[C@@H]1CCC2=O` [ESTRONE SULFURIC ACID], for which the INH in data set [1] worked out at 98.1%; in data set [2], 20.8%; in data set [3], 10.1%.

Turning to `O=C1[C@H](CC[C@H](O)c2ccc(F)cc2)[C@@H](c2ccc(O)cc2)N1c1ccc(F)cc1` [EZETIMIBE], the results for the INH in data set [1], in data set [2] and in data set [3] were 55.5%, -8.9% and 1.5%, respectively.

Turning to `CCOC(=O)C1=C(C)NC(C)=C(C(=O)OC)C1c1cccc(Cl)c1Cl` (centres undefined) [FELODIPINE], the INH worked out at 36.6% in data set [1], 21.4% in data set [2] and 18.4% in data set [3].

Regarding `CC(NCCC(c1ccccc1)c1ccccc1)c1ccccc1` (centres undefined) [FENDILINE], the INH is 15% in data set [1], -118.7% in data set [2] and 20.4% in data set [3].

As to `CC(C)OC(=O)C(C)(C)Oc1ccc(C(=O)c2ccc(Cl)cc2)cc1` [FENOFIBRATE], the INH was 5.4% in data set [1], 34.2% in data set [2] and -10.8% in data set [3].

Consider `OC(Cn1cncn1)(Cn1cncn1)c1ccc(F)cc1F` [FLUCONAZOLE], for which the INH in data set [1] worked out at 7.4%; in data set [2], 34.1%; in data set [3], 7.5%.

With `CNCCC(Oc1ccc(C(F)(F)F)cc1)c1ccccc1` (centres undefined) [FLUOXETINE], the INH in data set [1] was determined as 21.8%; in data set [2] it was 22.6%; in data set [3], 14.3%.

For `CC(C)C(=O)Nc1ccc([N+](=O)[O-])c(C(F)(F)F)c1` [FLUTAMIDE], the INH in data set [1] is 6.8%; in data set [2], 65.8%; in data set [3], 9%.

Take `COCCCC/C(=N\OCCN)c1ccc(C(F)(F)F)cc1` [FLUVOXAMINE]: the INH worked out at 43.8% in data set [1], 39% in data set [2] and 29.2% in data set [3].

Take `Cc1nc2c([nH]1)c(=O)n(C)c(=O)n2Cc1ccco1` [FURAFYLLINE]: the INH in data set [1] is recorded as -14.7%; in data set [2] it was 18.1%; in data set [3], 0.7%.

Consider `Cc1ccc(C)c(OCCCC(C)(C)C(=O)O)c1` [GEMFIBROZIL], for which the figures for the INH in data set [1], in data set [2] and in data set [3] were 59.3%, 15.1% and 14.4%, respectively.

For `O=c1c(-c2ccc(O)cc2)coc2cc(O)cc(O)c12` [GENISTEIN], the INH is recorded as 84.9% in data set [1], 67.9% in data set [2] and -5% in data set [3].

On to `C[C@H](CCC(=O)NCC(=O)O)[C@H]1CC[C@H]2[C@@H]3[C@H](O)C[C@@H]4C[C@H](O)CC[C@]4(C)[C@H]3CC[C@]12C` [GLYCOCHENODEOXYCHOLATE], for which the INH in data set [1] is listed as 80.2%; in data set [2] it was 65.3%; in data set [3] it was 72%.

Turning to `C[C@H](CCC(=O)NCC(=O)O)[C@H]1CC[C@H]2[C@@H]3CC[C@@H]4C[C@H](O)CC[C@]4(C)[C@H]3C[C@H](O)[C@]12C` [GLYCODEOXYCHOLATE], the INH is on record as 85% in data set [1], 53.8% in data set [2] and 79% in data set [3].

In the case of `NCC(=O)N1CCC[C@H]1C(=O)O` [GLYCYL PROLINE] (H-Gly-Pro-OH), the INH in data set [1] is -8.4%; in data set [2], 24.1%; in data set [3], 9.6%.

For the compound `CC1(C)[C@@H](O[C@H]2O[C@H](C(=O)O)[C@@H](O)[C@H](O)[C@H]2O[C@@H]2O[C@H](C(=O)O)[C@@H](O)[C@H](O)[C@H]2O)CC[C@]2(C)[C@H]3C(=O)C=C4[C@@H]5C[C@@](C)(C(=O)O)CC[C@]5(C)CC[C@@]4(C)[C@]3(C)CC[C@@H]12` [GLYCYRRHIZIN], the INH in data set [1] turned out to be 65.8%; in data set [2], 28.7%; in data set [3], 90.9%.

`CN[C@@H]1C[C@H](N)[C@@H](O)[C@H](O[C@H]2O[C@H](CO)[C@H](O)[C@@H]3O[C@@]4(O[C@@H]23)O[C@H]([C@H](N)CO)[C@H](O)[C@H](O)[C@H]4O)[C@H]1O` [HYGROMYCIN]: the values for the INH in data set [1], in data set [2] and in data set [3] were 32.8%, 31.5% and -4.2%, respectively.

Turning to `CC(C)Cc1ccc(C(C)C(=O)O)cc1` (centres undefined) [IBUPROFEN], the INH in data set [1] was 47.3%; in data set [2] it was 13.5%; in data set [3], -6.6%.

For the compound `CN(C)CCCN1c2ccccc2CCc2ccccc21` [IMIPRAMINE], the INH in data set [1] is recorded as 26.9%; in data set [2], 16.9%; in data set [3], -2.4%.
